biological target: MALT1 (Homo sapiens (Human), UniProt Q9UDY8); assay: MALT1 enzymatic activity inhibition (fluorescence, Ac-LRSR-AMC substrate); assay type: biochemical; conditions: recombinant MALT1 1.5 ng/μl, Ac-LRSR-AMC 1 μM
Procedure, shortened: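 Recombinant human MALT1 (1.5 ng/μl final) preincubated 10 min at rt with compounds in 50 mM HEPES pH 7.2-7.4, 100 mM NaCl, 900 mM sodium citrate, 10 mM DTT; 1 μM Ac-LRSR-AMC then added. AMC fluorescence read at start and after 30 min 37 °C plus 30 min rt; difference gives signal, % inhibition fitted to IC50.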

Sequence of MALT1 (Q9UDY8 whole entry): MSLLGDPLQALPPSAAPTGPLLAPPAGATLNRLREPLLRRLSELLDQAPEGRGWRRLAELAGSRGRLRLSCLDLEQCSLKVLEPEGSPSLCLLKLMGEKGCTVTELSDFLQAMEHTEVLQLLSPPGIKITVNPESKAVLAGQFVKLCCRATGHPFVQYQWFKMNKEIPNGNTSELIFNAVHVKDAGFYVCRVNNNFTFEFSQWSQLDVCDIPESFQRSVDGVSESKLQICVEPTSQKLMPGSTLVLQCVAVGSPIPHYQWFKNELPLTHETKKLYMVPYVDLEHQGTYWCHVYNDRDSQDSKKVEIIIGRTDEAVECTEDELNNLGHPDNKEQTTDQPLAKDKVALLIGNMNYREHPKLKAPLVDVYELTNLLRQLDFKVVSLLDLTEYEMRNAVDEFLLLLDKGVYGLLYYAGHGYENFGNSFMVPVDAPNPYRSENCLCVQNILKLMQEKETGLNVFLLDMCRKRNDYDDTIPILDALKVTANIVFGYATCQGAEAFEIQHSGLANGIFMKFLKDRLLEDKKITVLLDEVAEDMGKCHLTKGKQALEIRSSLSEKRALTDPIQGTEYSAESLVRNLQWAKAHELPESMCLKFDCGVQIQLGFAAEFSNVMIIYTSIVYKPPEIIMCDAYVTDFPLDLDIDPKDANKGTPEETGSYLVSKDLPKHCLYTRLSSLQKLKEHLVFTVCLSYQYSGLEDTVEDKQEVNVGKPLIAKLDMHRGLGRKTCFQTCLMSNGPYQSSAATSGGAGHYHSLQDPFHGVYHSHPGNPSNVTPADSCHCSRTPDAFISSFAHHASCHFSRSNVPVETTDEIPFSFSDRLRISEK

EC50 [µM]	SMILES
≤ 0.2	O=C1CCC(N2Cc3cc(N4CCN(C(=O)CCCc5nc(-c6ncc(NC(=O)Nc7cnc8ccnn8c7C7CC7)cc6Cl)no5)CC4)ccc3C2=O)C(=O)N1 (centres unmarked) [Compound 165, 1-[5-chloro-6-[5-[4-[4-[2-(2,6-dioxo-3-piperidyl)-1-oxo-isoindolin-5-yl]piperazin-1-yl]-4-oxo-butyl]-1,2,4-oxadiazol-3-yl]-3-pyridyl]-3-(7-cyclopropylpyrazolo[1,5-a]pyrimidin-6-yl)urea]
≤ 0.2	O=C1CCC(N2Cc3cc(N4CCN(CCCCc5nc(-c6ncc(NC(=O)Nc7cnc8ccnn8c7C7CC7)cc6Cl)no5)CC4)ccc3C2=O)C(=O)N1 (centres unmarked) [Compound 166, 1-[5-chloro-6-[5-[4-[4-[2-(2,6-dioxo-3-piperidyl)-1-oxo-isoindolin-5-yl]piperazin-1-yl]butyl]-1,2,4-oxadiazol-3-yl]-3-pyridyl]-3-(7-cyclopropylpyrazolo[1,5-a]pyrimidin-6-yl)urea]
1 to 5	O=C1CCC(N2Cc3cc(N4CCN(CCCCCCc5nnc(-c6ccc(NC(=O)Nc7cnc8ccnn8c7C7CCCC7)cn6)s5)CC4)ccc3C2=O)C(=O)N1 (centres unmarked) [Compound 143, 1-(7-cyclopentylpyrazolo[1,5-a]pyrimidin-6-yl)-3-[6-[5-[6-[4-[2-(2,6-dioxo-3-piperidyl)-1-oxo-isoindolin-5-yl]piperazin-1-yl]hexyl]-1,3,4-thiadiazol-2-yl]-3-pyridyl]urea]
≤ 0.2	O=C1CCC(N2Cc3cc(N4CCN(CCCCCCc5nc(-c6ncc(NC(=O)Nc7cnc8ccnn8c7C7CC7)cc6Cl)no5)CC4)ccc3C2=O)C(=O)N1 (centres unmarked) [Compound 159, 1-[5-chloro-6-[5-[6-[4-[2-(2,6-dioxo-3-piperidyl)-1-oxo-isoindolin-5-yl]piperazin-1-yl]hexyl]-1,2,4-oxadiazol-3-yl]-3-pyridyl]-3-(7-cyclopropylpyrazolo[1,5-a]pyrimidin-6-yl)urea]
0.2 to 0.5	CO[C@@H](C)c1c(NC(=O)Nc2cc(Cl)cnc2OCCNC(=O)CCOCCN2CCN(c3ccc4c(c3)CN(C3CCC(=O)NC3=O)C4=O)CC2)cnc2ccnn12 (stereo partly drawn) [Compound 25, N-[2-[[5-chloro-3-[[7-[(1S)-1-methoxyethyl]pyrazolo[1,5-a]pyrimidin-6-yl]carbamoylamino]-2-pyridyl]oxy]ethyl]-3-[2-[4-[2-(2,6-dioxo-3-piperidyl)-1-oxo-isoindolin-5-yl]piperazin-1-yl]ethoxy]propanamide]
0.5 to 1	O=C(CCOCCOCCN1CCN(c2ccc3c(c2)CN(C2CCC(=O)NC2=O)C3=O)CC1)NCCOc1ncc(Cl)cc1NC(=O)Nc1cnc2ccnn2c1C1CCOC1 (centres unmarked) [Compound 40, N-[2-[[5-chloro-3-[(7-tetrahydrofuran-3-ylpyrazolo[1,5-a]pyrimidin-6-yl)carbamoylamino]-2-pyridyl]oxy]ethyl]-3-[2-[2-[4-[2-(2,6-dioxo-3-piperidyl)-1-oxo-isoindolin-5-yl]piperazin-1-yl]ethoxy]ethoxy]propanamide]
> 5	O=C(CCOCCOCCN1CCN(c2ccc3c(c2)CN(C2CCC(=O)NC2=O)C3=O)CC1)NCCNC(=O)[C@@H]1C[C@@H](O)CN1C(=O)Nc1cnc2ccnn2c1C1CCCC1 (stereo partly drawn) [Compound 47, (2S,4R)-N1-(7-cyclopentylpyrazolo[1,5-a]pyrimidin-6-yl)-N2-[2-[3-[2-[2-[4-[2-(2,6-dioxo-3-piperidyl)-1-oxo-isoindolin-5-yl]piperazin-1-yl]ethoxy]ethoxy]propanoylamino]ethyl]-4-hydroxy-pyrrolidine-1,2-dicarboxamide]
0.5 to 1	O=C(CCOCCN1CCN(c2ccc3c(c2)CN(C2CCC(=O)NC2=O)C3=O)CC1)NCCOc1ncc(Cl)cc1NC(=O)Nc1cnc2ccnn2c1C1CCOCC1 (centres unmarked) [Compound 42, N-[2-[[5-chloro-3-[(7-tetrahydropyran-4-ylpyrazolo[1,5-a]pyrimidin-6-yl)carbamoylamino]-2-pyridyl]oxy]ethyl]-3-[2-[4-[2-(2,6-dioxo-3-piperidyl)-1-oxo-isoindolin-5-yl]piperazin-1-yl]ethoxy]propanamide]
> 5	O=C(CCOCCN1CCN(c2ccc3c(c2)CN(C2CCC(=O)NC2=O)C3=O)CC1)NCCOc1ncc(Cl)cc1NC(=O)Nc1cnc2nccn2c1C1CCCC1 (centres unmarked) [Compound 52, N-[2-[[5-chloro-3-[(5-cyclopentylimidazo[1,2-a]pyrimidin-6-yl)carbamoylamino]-2-pyridyl]oxy]ethyl]-3-[2-[4-[2-(2,6-dioxo-3-piperidyl)-1-oxo-isoindolin-5-yl]piperazin-1-yl]ethoxy]propanamide]
> 5	O=C(CCOCCN1CCN(c2ccc3c(c2)CN(C2CCC(=O)NC2=O)C3=O)CC1)NCCNC(=O)C1CCCN1C(=O)Nc1cnc2ccnn2c1C1CCCC1 (centres unmarked) [Compound 45, N1-(7-cyclopentylpyrazolo[1,5-a]pyrimidin-6-yl)-N2-[2-[3-[2-[4-[2-(2,6-dioxo-3-piperidyl)-1-oxo-isoindolin-5-yl]piperazin-1-yl]ethoxy]propanoylamino]ethyl]pyrrolidine-1,2-dicarboxamide]

Second part, the molecule before the results:

SMILES	EC50 [µM]
Cc1cc(NC(=O)Nc2cnc3ccnn3c2C2CCCC2)cnc1-c1cn(CCCCOCC(=O)N2CCN(c3ccc4c(c3)CN(C3CCC(=O)NC3=O)C4=O)CC2)nn1 (centres unmarked) [Compound 8, 1-(7-cyclopentylpyrazolo[1,5-a]pyrimidin-6-yl)-3-[6-[1-[4-[2-[4-[2-(2,6-dioxo-3-piperidyl)-1-oxo-isoindolin-5-yl]piperazin-1-yl]-2-oxo-ethoxy]butyl]triazol-4-yl]-5-methyl-3-pyridyl]urea]	1 to 5
O=C1CCC(N2Cc3cc(N4CCN(C(=O)CCCCc5nc(-c6ncc(NC(=O)Nc7cnc8ccnn8c7C7CCCC7)cc6F)no5)CC4)ccc3C2=O)C(=O)N1 (centres unmarked) [Compound 81, 1-(7-cyclopentylpyrazolo[1,5-a]pyrimidin-6-yl)-3-[6-[5-[5-[4-[2-(2,6-dioxo-3-piperidyl)-1-oxo-isoindolin-5-yl]piperazin-1-yl]-5-oxo-pentyl]-1,2,4-oxadiazol-3-yl]-5-fluoro-3-pyridyl]urea]	0.2 to 0.5
O=C1CCC(N2Cc3cc(N4CCN(C(=O)CCCCCc5nc(-c6ncc(NC(=O)Nc7cnc8ccnn8c7C7CCCC7)cc6F)no5)CC4)ccc3C2=O)C(=O)N1 (centres unmarked) [Compound 74, 1-(7-cyclopentylpyrazolo[1,5-a]pyrimidin-6-yl)-3-[6-[5-[6-[4-[2-(2,6-dioxo-3-piperidyl)-1-oxo-isoindolin-5-yl]piperazin-1-yl]-6-oxo-hexyl]-1,2,4-oxadiazol-3-yl]-5-fluoro-3-pyridyl]urea]	0.2 to 0.5
Cc1cc(NC(=O)Nc2cnc3ccnn3c2C2CCCO2)cnc1-c1noc(CCC(=O)N2CCN(c3ccc4c(c3)CN(C3CCC(=O)NC3=O)C4=O)CC2)n1 (centres unmarked) [Compound 60, 1-[6-[5-[3-[4-[2-(2,6-dioxo-3-piperidyl)-1-oxo-isoindolin-5-yl]piperazin-1-yl]-3-oxo-propyl]-1,2,4-oxadiazol-3-yl]-5-methyl-3-pyridyl]-3-(7-tetrahydrofuran-2-ylpyrazolo[1,5-a]pyrimidin-6-yl)urea]	≤ 0.2
Cc1cc(NC(=O)Nc2cnc3ccnn3c2C2CCCC2)cnc1-c1noc(COCCCCN2CCN(c3ccc4c(c3)CN(C3CCC(=O)NC3=O)C4=O)CC2)n1 (centres unmarked) [Compound 11, 1-(7-cyclopentylpyrazolo[1,5-a]pyrimidin-6-yl)-3-[6-[5-[4-[4-[2-(2,6-dioxo-3-piperidyl)-1-oxo-isoindolin-5-yl]piperazin-1-yl]butoxymethyl]-1,2,4-oxadiazol-3-yl]-5-methyl-3-pyridyl]urea]	0.2 to 0.5
O=C1CCC(N2Cc3cc(N4CCN(C(=O)CCCCn5cc(NC(=O)Nc6cnc7ccnn7c6C6CCCC6)c(C(F)(F)F)n5)CC4)ccc3C2=O)C(=O)N1 (centres unmarked) [Compound 151, 1-(7-cyclopentylpyrazolo[1,5-a]pyrimidin-6-yl)-3-[1-[5-[4-[2-(2,6-dioxo-3-piperidyl)-1-oxo-isoindolin-5-yl]piperazin-1-yl]-5-oxo-pentyl]-3-(trifluoromethyl)pyrazol-4-yl]urea]	1 to 5
Cc1cc(NC(=O)Nc2cnc3ccnn3c2C2CCCC2)cnc1-c1nnc(CCCCCC(=O)N2CCN(c3ccc4c(c3)CN(C3CCC(=O)NC3=O)C4=O)CC2)o1 (centres unmarked) [Compound 5, 1-(7-cyclopentylpyrazolo[1,5-a]pyrimidin-6-yl)-3-[6-[5-[6-[4-[2-(2,6-dioxo-3-piperidyl)-1-oxo-isoindolin-5-yl]piperazin-1-yl]-6-oxo-hexyl]-1,3,4-oxadiazol-2-yl]-5-methyl-3-pyridyl]urea]	≤ 0.2
O=C1CCC(N2Cc3cc(N4CCN(C(=O)CCCCCc5nnc(-c6ccc(NC(=O)Nc7cnc8ccnn8c7C7CCCC7)cn6)s5)CC4)ccc3C2=O)C(=O)N1 (centres unmarked) [Compound 128, 1-(7-cyclopentylpyrazolo[1,5-a]pyrimidin-6-yl)-3-[6-[5-[6-[4-[2-(2,6-dioxo-3-piperidyl)-1-oxo-isoindolin-5-yl]piperazin-1-yl]-6-oxo-hexyl]-1,3,4-thiadiazol-2-yl]-3-pyridyl]urea]	1 to 5
Cc1cc(NC(=O)Nc2cnc3c(Cl)cnn3c2C2CCCC2)cnc1-c1noc(CCCN2CCN(c3cc4c(cc3F)C(=O)N(C3CCC(=O)NC3=O)C4=O)CC2)n1 (centres unmarked) [Compound 24, 1-(3-chloro-7-cyclopentyl-pyrazolo[1,5-a]pyrimidin-6-yl)-3-[6-[5-[3-[4-[2-(2,6-dioxo-3-piperidyl)-6-fluoro-1,3-dioxo-isoindolin-5-yl]piperazin-1-yl]propyl]-1,2,4-oxadiazol-3-yl]-5-methyl-3-pyridyl]urea]	1 to 5
O=C1CCC(N2Cc3cc(N4CCN(C(=O)CCCCn5cc(NC(=O)Nc6cnc7ccnn7c6C6CCCO6)c(C(F)(F)F)n5)CC4)ccc3C2=O)C(=O)N1 (centres unmarked) [Compound 155, 1-[1-[5-[4-[2-(2,6-dioxo-3-piperidyl)-1-oxo-isoindolin-5-yl]piperazin-1-yl]-5-oxo-pentyl]-3-(trifluoromethyl)pyrazol-4-yl]-3-(7-tetrahydrofuran-2-ylpyrazolo[1,5-a]pyrimidin-6-yl)urea]	> 5

Source: patent US20250163066A1, “PROTACs of MALT1” (TEGID THERAPEUTICS, INC., priority 2022, published 2025)
